{"source": "patent US10821065B2", "about": "“Peptide for inhibiting biofilms” (SEOUL NATIONAL UNIVERSITY R&DB FOUNDATION, priority 2017, dated 2020)", "key": {"[1]": {"tested_on": "Streptococcus mutans biofilm", "assay": "Streptococcus mutans biofilm formation, 0.1% crystal violet staining", "type": "cell-based", "details": "37° C., 24 hours; for S. mutans biofilm formation (crystal violet), single or co-treatment: 10 μg/ml HBD3-C15, 25 μg/ml CH, 0.02% CHX, or combination, FIG. 2A", "procedure": "To confirm the effect of HBD3-C15 on a Streptococcus mutans biofilm, Streptococcus mutans was cultured in a Brain Heart Infusion (BHI) medium. The cultured Streptococcus mutans was prepared at 1×10^7 CFU/ml, and then 1% NaCl or 0.05% sucrose was added thereto to promote biofilm formation, followed by treatment with 50 μg/ml of HBD3-C15. After incubation at 37° C. for 24 hours, 0.1% crystal violet staining was performed for comparison of the degree of biofilm formation.\nIn addition, 0.05% sucrose was added to Streptococcus mutans, followed with treatment with HBD3-C15 at a concentration of 10 μg/ml, 30 μg/ml, or 50 μg/ml. After incubation at 37° C. for 24 hours, 0.1% crystal violet staining was performed for comparison of the degree of biofilm formation.\nTo determine whether HBD3-C15 is capable of inhibiting a biofilm by synergistic effects with calcium hydroxide (CH) or chlorohexidine (CHX), which is an existing dental therapeutic agent, Streptococcus mutans was cultured in a BHI medium and then prepared at 1×10^7 CFU/ml, and treated with 10 μg/ml of HBD3-C15, 25 μg/ml of CH, 0.02% CHX, or a combination thereof in the presence of 0.05% sucrose. After incubation at 37° C. for 24 hours, 0.1% crystal violet staining was performed for comparison of the degree of biofilm formation."}, "[2]": {"tested_on": "Enterococcus faecalis biofilm", "assay": "Enterococcus faecalis biofilm formation on dentin sections, scanning electron microscope", "type": "cell-based", "details": "5×10^6 CFU/ml; 10 μg/ml HBD3-C15, 25 μg/ml CH, 0.02% CHX, or combination; 37° C., 24 hours; FIG. 3", "procedure": "(§1) To confirm whether the Streptococcus mutans biofilm inhibition through synergistic effects of HBD3-C15 and an existing dental therapeutic agent is reproduced in the formation of biofilms formed by other dental infectious bacteria, Enterococcus faecalis and Streptococcus gordonii were cultured in a BHI medium and a Todd Hewitt yeast (THY) medium, respectively, and then E. faecalis and S. gordonii were prepared at 5×10^6 CFU/ml and 1×10^8 CFU/ml, respectively, and treated, on the dentin sections, with 10 μg/ml of HBD3-C15, 25 μg/ml of CH, 0.02% CHX, or a combination thereof. After incubation at 37° C. for 24 hours, comparison of the degree of biofilm formation was conducted using a scanning electron microscope."}, "[3]": {"tested_on": "Streptococcus mutans biofilm", "assay": "Streptococcus mutans biofilm formation on human teeth dentin sections, scanning electron microscope", "type": "cell-based", "details": "10 μg/ml HBD3-C15, 25 μg/ml CH, 0.02% CHX, or combination; 0.05% sucrose; 37° C., 24 hours; FIG. 2B", "procedure": "In addition, human teeth dentin sections were prepared to represent an actual oral infection situation, 1×10^7 CFU/ml of Streptococcus mutans was treated, on the dentin sections, with 10 μg/ml of HBD3-C15, 25 μg/ml of CH, 0.02% CHX, or a combination thereof in the presence of 0.05% sucrose. After incubation at 37° C. for 24 hours, comparison of the degree of biofilm formation was conducted using a scanning electron microscope."}, "[4]": {"tested_on": "Streptococcus gordonii biofilm", "assay": "Streptococcus gordonii biofilm formation on dentin sections, scanning electron microscope", "type": "cell-based", "details": "1×10^8 CFU/ml; 10 μg/ml HBD3-C15, 25 μg/ml CH, 0.02% CHX, or combination; 37° C., 24 hours; FIG. 3", "procedure": "as §1"}, "[5]": {"assay": "Tooth discoloration of treated dentin sections, photographed", "set-up": "species or system human", "details": "30 μg/ml HBD3-C15, 0.002% CHX, 0.02% CHX, or combination (2% CHX positive control), 37° C., 7 days, FIG. 5", "procedure": "According to previous papers, it has been reported that CHX, which is a typical dental therapeutic agent, causes side effects such as tooth discoloration. Thus, to confirm the effect of treatment with HBD3-C15 alone or a combination of HBD3-C15 and CHX on tooth discoloration, dentin sections were treated with 30 μg/ml of HBD3-C15, 0.002% CHX, 0.02% CHX, or a combination thereof, and 2% CHX was used as a positive control. Subsequently, the dentin sections were cultured at 37° C. for 7 days and photographed to observe the degree of tooth discoloration."}, "[6]": {"tested_on": "Streptococcus mutans biofilm", "assay": "Streptococcus mutans biofilm formation, confocal microscope", "type": "cell-based", "details": "HBD3-C15 at 10, 30 or 50 μg/ml; 0.05% sucrose; FIG. 1C"}}, "data": [{"compound": "[Ca+2].[OH-].[OH-]", "note": "[CH, calcium hydroxide]", "values": [{"measurement": "S. mutans biofilm formation (crystal violet), single or co-treatment", "setting": "[1]; 0.05% sucrose", "result": "inhibited"}, {"measurement": "E. faecalis biofilm formation on dentin sections (SEM), single or co-treatment", "setting": "[2]", "result": "inhibited"}, {"measurement": "S. mutans biofilm formation on dentin sections (SEM), single or co-treatment", "setting": "[3]", "result": "inhibited"}, {"measurement": "S. gordonii biofilm formation on dentin sections (SEM), single or co-treatment", "setting": "[4]", "result": "inhibited"}]}, {"compound": "N=C(NCCCCCCNC(=N)NC(=N)Nc1ccc(Cl)cc1)NC(=N)Nc1ccc(Cl)cc1", "note": "[CHX, chlorohexidine]", "values": [{"measurement": "tooth discoloration", "setting": "[5]", "result": "induced by treatment with CHX alone in a concentration-dependent manner"}, {"measurement": "S. mutans biofilm formation (crystal violet), single or co-treatment", "setting": "[1]; 0.05% sucrose", "result": "inhibited"}, {"measurement": "E. faecalis biofilm formation on dentin sections (SEM), single or co-treatment", "setting": "[2]", "result": "inhibited"}, {"measurement": "S. mutans biofilm formation on dentin sections (SEM), single or co-treatment", "setting": "[3]", "result": "inhibited"}, {"measurement": "S. gordonii biofilm formation on dentin sections (SEM), single or co-treatment", "setting": "[4]", "result": "inhibited"}]}, {"compound": "G-K-C-S-T-R-G-R-K-C-C-R-R-K-K [HBD3-C15]", "values": [{"measurement": "S. mutans biofilm formation (crystal violet), single or co-treatment", "setting": "[1]; 0.05% sucrose", "result": "inhibited"}, {"measurement": "formation of Streptococcus mutans biofilm (crystal violet)", "setting": "[1]; 50 μg/ml HBD3-C15, biofilm promoted by 0.05% sucrose, FIG. 1A", "result": "inhibited"}, {"measurement": "formation of Streptococcus mutans biofilm (crystal violet)", "setting": "[1]; 50 μg/ml HBD3-C15, biofilm promoted by 1% NaCl, FIG. 1A", "result": "inhibited"}, {"measurement": "formation of Streptococcus mutans biofilm (crystal violet)", "setting": "[1]; HBD3-C15 at 10, 30 or 50 μg/ml, 0.05% sucrose, FIG. 1B", "result": "inhibited in a concentration-dependent manner"}, {"measurement": "E. faecalis biofilm formation on dentin sections (SEM), single or co-treatment", "setting": "[2]", "result": "inhibited"}, {"measurement": "S. mutans biofilm formation on dentin sections (SEM), single or co-treatment", "setting": "[3]", "result": "inhibited"}, {"measurement": "formation of Streptococcus mutans biofilm (confocal microscope)", "setting": "[6]", "result": "inhibit formation of a biofilm in a concentration-dependent manner"}, {"measurement": "S. gordonii biofilm formation on dentin sections (SEM), single or co-treatment", "setting": "[4]", "result": "inhibited"}]}]}
